Assays:
[1] = system: MOLM-13; assay: Cell growth inhibition, CellTiter-Glo Luminescent Cell Viability Assay, MOLM-13; assay type: cell-based; conditions: Homo sapiens, MOLM-13, 96 h, MOLM-13 cells, 4 days incubation
Method: (§1) Cell growth inhibitory activity of representative Compounds of the Disclosure was determined in various cell lines using CellTiter-Glo® Luminescent Cell Viability Assay. Cells were seeded in 384-well white opaque cell culture plates at a density of 2,000 cells/well with serially diluted compounds and incubated at 37° C. in an atmosphere of 95% air and 5% CO2 for 4 days. Cell viability was determined using the CellTiter-Glo® Luminescent Cell Viability Assay Kit (Promega, Madison, Wis.) according to the manufacture's instruction. Briefly, a volume of CellTiter-Glo® Reagent equal to the volume of cell culture medium was added to each well, and then the plates were incubated at room temperature for 10-20 minutes. The luminescent signal was measured using a Tecan Infinite M1000 multimode microplate reader (Tecan, Morrisville, N.C.). The half maximal inhibitory concentration (IC50) was calculated using the GraphPad Prism 5 software (GraphPad Software, La Jolla, Calif.).

[2] = system: MDA-MB-231; assay: Cell growth inhibition, CellTiter-Glo Luminescent Cell Viability Assay, MDA-MB-231; assay type: cell-based; conditions: Homo sapiens, MDA-MB-231, 96 h, MDA-MB-231 cells, 4 days incubation
Method: as §1

Row | SMILES | IC50 [1] | IC50 [2]
1 | Cc1c(C#Cc2cnn(CCCCN3CCC(Nc4cccc5c4CN(C4CCC(=O)NC4=O)C5=O)CC3)c2)sc2c1C(c1ccc(Cl)cc1)=NCc1nnc(C)n1-2 (stereo not shown) [compound 149, 3-(4-((1-(4-(4-((4-(4-chlorophenyl)-3,9-dimethyl-6H-thieno[3,2-f][1,2,4]triazolo[4,3-a][1,4]diazepin-2-yl)ethynyl)-1H-pyrazol-1-yl)butyl)piperidin-4-yl)amino)-1-oxoisoindolin-2-yl)piperidine-2,6-dione] | 0.42 nM | 0.67 nM
2 | Cc1c(C#Cc2ccc(CN3CCC(CNc4cccc5c4CN(C4CCC(=O)NC4=O)C5=O)CC3)cn2)sc2c1C(c1ccc(Cl)cc1)=NCc1nnc(C)n1-2 (stereo not shown) [compound 167, 3-(4-(((1-((6-((4-(4-chlorophenyl)-3,9-dimethyl-6H-thieno[3,2-f][1,2,4]triazolo[4,3-a][1,4]diazepin-2-yl)ethynyl)pyridin-3-yl)methyl)piperidin-4-yl)methyl)amino)-1-oxoisoindolin-2-yl)piperidine-2,6-dione] | 6.2 nM | 7.2 nM
3 | Cc1c(C#Cc2cnn(CCCn3cnc(COc4cccc5c4CN(C4CCC(=O)NC4=O)C5=O)c3)c2)sc2c1C(c1ccc(Cl)cc1)=NCc1nnc(C)n1-2 (stereo not shown) [compound 156, 3-(4-((1-(3-(4-((4-(4-chlorophenyl)-3,9-dimethyl-6H-thieno[3,2-f][1,2,4]triazolo[4,3-a][1,4]diazepin-2-yl)ethynyl)-1H-pyrazol-1-yl)propyl)-1H-imidazol-4-yl)methoxy)-1-oxoisoindolin-2-yl)piperidine-2,6-dione] | 12.8 nM | 17.6 nM
4 | Cc1c(C#Cc2cnn(CCCCNc3cccc4c3C(=O)N(C3(F)CCC(=O)NC3=O)C4=O)c2)sc2c1C(c1ccc(Cl)cc1)=NCc1nnc(C)n1-2 (stereo not shown) [compound 144, 4-((4-(4-((4-(4-chlorophenyl)-3,9-dimethyl-6H-thieno[3,2-f][1,2,4]triazolo[4,3-a][1,4]diazepin-2-yl)ethynyl)-1H-pyrazol-1-yl)butyl)amino)-2-(3-fluoro-2,6-dioxopiperidin-3-yl)isoindoline-1,3-dione] | 6.8 nM | 10.1 nM
5 | Cc1c(C#Cc2cnn(CCCC#Cc3ccc4c(c3)C(=O)N(C3CCC(=O)NC3=O)C4=O)c2)sc2c1C(c1ccc(Cl)cc1)=NCc1nnc(C)n1-2 (stereo not shown) [compound 157, 5-(5-(4-((4-(4-chlorophenyl)-3,9-dimethyl-6H-thieno[3,2-f][1,2,4]triazolo[4,3-a][1,4]diazepin-2-yl)ethynyl)-1H-pyrazolo-1-yl)pent-1-yn-1-yl)-2-(2,6-dioxopiperidin-3-yl)isoindoline-1,3-dione] | 18.6 nM | 52.7 nM
6 | Cc1c(C#Cc2cnn(C[C@H]3CC[C@@H](Nc4cccc5c4CN(C4CCC(=O)NC4=O)C5=O)CC3)c2)sc2c1C(c1ccc(Cl)cc1)=N[C@@H](C)c1nnc(C)n1-2 (stereo partly drawn) [compound 172, 3-(4-(((1R,4s)-4-((4-(((S)-4-(4-chlorophenyl)-3,6,9-trimethyl-6H-thieno[3,2-f][1,2,4]triazolo[4,3-a][1,4]diazepin-2-yl)ethynyl)-1H-pyrazol-1-yl)methyl)cyclohexyl)amino)-1-oxoisoindolin-2-yl)piperidine-2,6-dione] | 2.3 nM | 4.4 nM
7 | Cc1c(C#Cc2cnn(CCCn3cnc(CNc4cccc5c4CN(C4CCC(=O)NC4=O)C5=O)c3)c2)sc2c1C(c1ccc(Cl)cc1)=NCc1nnc(C)n1-2 (stereo not shown) [compound 151, 3-(4-(((1-(3-(4-((4-(4-chlorophneyl)-3,9-dimethyl-6H-thieno[3,2-f][1,2,4]triazolo[4,3-a][1,4]diazepin-2-yl)ethynyl)-1H-pyrazol-1-yl)propyl)-1H-imidazol-4-yl)methyl)amino)-1-oxoisoindolin-2-yl)piperidine-2,6-dione] | > 100 nM | > 100 nM
8 | Cc1c(C#Cc2ccc(CCCCNc3cccc4c3CN(C3CCC(=O)NC3=O)C4=O)nc2)sc2c1C(c1ccc(Cl)cc1)=N[C@@H](C)c1nnc(C)n1-2 (stereo partly drawn) [Cpd. No. 18, 3-(4-((4-(5-(((S)-4-(4-chlorophenyl)-3,6,9-trimethyl-6H-thieno[3,2-f][1,2,4]triazolo[4,3-a][1,4]diazepin-2-yl)ethynyl)pyridin-2-yl)butyl)amino)-1-oxoisoindolin-2-yl)piperidine-2,6-dione] | 0.23 nM | 0.43 nM
9 | Cc1c(C#Cc2cnn(CCn3cnc(COc4cccc5c4C(=O)N(C4CCC(=O)NC4=O)C5=O)c3)c2)sc2c1C(c1ccc(Cl)cc1)=NCc1nnc(C)n1-2 (stereo not shown) [compound 153, 4-((1-(2-(4-((4-(4-chlorophenyl)-3,9-dimethyl-6H-thieno[3,2-f][1,2,4]triazolo[4,3-a][1,4]diazepin-2-yl)ethynyl)-1H-pyrazol-1-yl)ethyl)-1H-imidazol-4-yl)methoxy)-2-(2,6-dioxopiperidin-3-yl)isoindoline-1,3-dione] | > 100 nM | > 100 nM
10 | Cc1c(C#Cc2cnn(CCCC#Cc3cccc4c3C(=O)N(C3CCCNC3=O)C4=O)c2)sc2c1C(c1ccc(Cl)cc1)=N[C@@H](C)c1nnc(C)n1-2 (stereo partly drawn) [compound 160, 4-(5-(4-(((S)-4-(4-chlorophenyl)-3,6,9-trimethyl-6H-thieno[3,2-f][1,2,4]triazolo[4,3-a][1,4]diazepin-2-yl)ethynyl)-1H-pyrazol-1-yl)pent-1-yn-1-yl)-2-(2-oxopiperidin-3-yl)isoindoline-1,3-dione] | 42.6 nM | 58.8 nM
11 | Cc1c(C#Cc2cnn(CCCC#Cc3ccc4c(c3)C(=O)N(C3CCC(=O)NC3=O)C4=O)c2)sc2c1C(c1ccc(Cl)cc1)=N[C@@H](C)c1nnc(C)n1-2 (stereo partly drawn) [compound 158, 5-(5-(4-(((S)-4-(4-chlorophenyl)-3,6,9-trimethyl-6H-thieno[3,2-f][1,2,4]triazolo[4,3-a][1,4]diazepin-2-yl)ethynyl)-1H-pyrazolo-1-yl)pent-1-yn-1-yl)-2-(2,6-dioxopiperidin-3-yl)isoindoline-1,3-dione] | 2.5 nM | 7.2 nM

Results, then the compound that gave them:

Row | IC50 [1] | IC50 [2] | SMILES
12 | 2.8 nM | 1.7 nM | Cc1c(C#Cc2ccc(CCC#Cc3cccc4c3CN(C3CCC(=O)NC3=O)C4=O)cn2)sc2c1C(c1ccc(Cl)cc1)=N[C@@H](C)c1nnc(C)n1-2 (stereo partly drawn) [compound 182, 3-(4-(4-(6-(((S)-4-(4-chlorophenyl)-3,6,9-trimethyl-6H-thieno[3,2-f][1,2,4]triazolo[4,3-a][1,4]diazepin-2-yl)ethynyl)pyridin-3-yl)but-1-yn-1-yl)-1-oxoisoindolin-2-yl)piperidine-2,6-dione]
13 | 0.8 nM | 0.7 nM | Cc1c(C#Cc2cnn(CCOCCOCCOCC#Cc3cccc4c3CN(C3CCC(=O)NC3=O)C4=O)c2)sc2c1C(c1ccc(Cl)cc1)=N[C@@H](CC(=O)OC(C)(C)C)c1nnc(C)n1-2 (stereo partly drawn) [compound 194, tert-butyl 2-((6S)-4-(4-chlorophenyl)-2-((1-(2-(2-(2-((3-(2-(2,6-dioxopiperidin-3-yl)-1-oxoisoindolin-4-yl)prop-2-yn-1-yl)oxy)ethoxy)ethoxy)ethyl)-1H-pyrazol-4-yl)ethynyl)-3,9-dimethyl-6H-thieno[3,2-f][1,2,4]triazolo[4,3-a][1,4]diazepin-6-yl)acetate]
14 | 0.2 nM | 0.1 nM | Cc1c(C#Cc2cnn(CCCNc3ccc4c(c3)CN(C3CCC(=O)NC3=O)C4=O)c2)sc2c1C(c1ccc(Cl)cc1)=N[C@@H](C)c1nnc(C)n1-2 (stereo partly drawn) [compound 185, 3-(5-((3-(4-(((S)-4-(4-chlorophenyl)-3,6,9-trimethyl-6H-thieno[3,2-f][1,2,4]triazolo[4,3-a][1,4]diazepin-2-yl)ethynyl)-1H-pyrazol-1-yl)propyl)amino)-1-oxoisoindolin-2-yl)piperidine-2,6-dione]
15 | 1.1 nM | 2.5 nM | Cc1c(C#Cc2cnn(CCOCCOCCOCC#Cc3cccc4c3CN(C3CCC(=O)NC3=O)C4=O)c2)sc2c1C(c1ccc(Cl)cc1)=N[C@@H](CC(=O)N1CCN(C)CC1)c1nnc(C)n1-2 (stereo partly drawn) [compound 197, 3-(4-(3-(2-(2-(2-(4-(((S)-4-(4-chlorophenyl)-3,9-dimethyl-6-(2-(4-methylpiperazin-1-yl)-2-oxoethyl)-6H-thieno[3,2-f][1,2,4]triazolo[4,3-a][1,4]diazepin-2-yl)ethynyl)-1H-pyrazol-1-yl)ethoxy)ethoxy)ethoxy)prop-1-yn-1-yl)-1-oxoisoindolin-2-yl)piperidine-2,6-dione]
16 | 0.9 nM | 0.2 nM | Cc1c(C#Cc2cnn(CCCC#Cc3ccc4c(c3)CN(C3CCC(=O)NC3=O)C4=O)c2)sc2c1C(c1ccc(Cl)cc1)=N[C@@H](C)c1nnc(C)n1-2 (stereo partly drawn) [compound 179, 3-(5-(5-(4-(((S)-4-(4-chlorophenyl)-3,6,9-trimethyl-6H-thieno[3,2-f][1,2,4]triazolo[4,3-a][1,4]diazepin-2-yl)ethynyl)-1H-pyrazol-1-yl)pent-1-yn-1-yl)-1-oxoisoindolin-2-yl)piperidine-2,6-dione]
17 | 0.04 nM | 0.2 nM | CCNC(=O)C[C@@H]1N=C(c2ccc(Cl)cc2)c2c(sc(C#Cc3cnn(CCCN4CCC(Nc5cccc6c5CN(C5CCC(=O)NC5=O)C6=O)CC4)c3)c2C)-n2c(C)nnc21 (stereo partly drawn) [compound 191, 2-((6S)-4-(4-chlorophenyl)-2-((1-(3-(4-((2-(2,6-dioxopiperidin-3-yl)-1-oxoisoindolin-4-yl)amino)piperidin-1-yl)propyl)-1H-pyrazol-4-yl)ethynyl)-3,9-dimthyl-6H-thieno[3,2-f][1,2,4]triazolo[4,3-a][1,4]diazepin-6-yl)-N-ethylacetamide]

From patent US10975093B2, “Fused 1,4-diazepines as BET protein degraders” (THE REGENTS OF THE UNIVERSITY OF MICHIGAN, priority 2016, dated 2021)
